Data set [1] can be described thus: DPPH radical-scavenging assay. The note with it: mean ± SD of three experiments. The protocol: The DPPH radical-scavenging activity was assessed by the method previously described.
For orientation: Loss of DPPH colour is used to gauge radical scavenging.

The next data set can be described thus: ABTS radical assay. As to conditions: mean ± SD of three experiments. How it is done:
The antioxidant activity by ABTS was assessed according to the method previously described.

For a further data set, the system named is S. aureus. The note with it: cited from earlier work.
A short description of data set [2]: MTT cytotoxicity assay, normal cells. It counts as cell-based. The note with it: monkey. The protocol: (§1) Cancer cell lines including human monocytic THP-1 and murine macrophage RAW 264.7 cells and the normal mammalian Vero monkey kidney cell line were obtained from the American Type Culture Collection (Rockville, MD, USA). They were maintained in DMEM under standard cell culture conditions at 37 °C and 5% CO2 in a humidified environment.
(§2) The 3-(4,5-dimethylthiazol-2-yl)-2,5-diphenyltetrazolium bromide (MTT) assay was used to determine the cytotoxicity of the compounds as previously described. The selectivity index (SI) values to identify selective anti-cancer cell activity were calculated by dividing the LC50 values of normal Vero cells by the LC50 of cancer cells.
For orientation: Formazan colour is commonly taken as a measure of viable cells.

For the next data set, the system named is THP-1 cells. The experiment in a line: MTT cytotoxicity assay, cancer cells. Type of data set: cell-based. The note with it: Homo sapiens, THP-1, read-out: THP-1 LC50. The protocol:
as §1, §2

Another data set relates to RAW 264.7 cells. The experiment in a line: MTT cytotoxicity assay, cancer cells. Type of data set: cell-based. The note with it: Mus musculus, RAW264.7, read-out: RAW 264.7 LC50. How it is done: as §1, §2
For data set [3], the system named is Salmonella typhimurium ATCC 14028. The data set can be described thus: Antibacterial MIC, INT microdilution. It counts as cell-based. The note with it: Salmonella enterica, read-out: MIC St. How it is done: (§3) The six bacterial strains included: Pseudomonas aeruginosa ATCC 27853, Bacillus cereus ATCC 14579, Staphylococcus aureus ATCC 29213, Escherichia coli ATCC 25922, Salmonella typhimurium ATCC 14028 and Enterococcus faecalis ATCC 29212. The antimicrobial activity was evaluated by determining the minimal inhibitory concentration (MIC) by the rapid p-iodonitrotetrazolium violet (INT) microdilution method as previously described.
(In general: Dilution methods test growth across graded concentrations, often in twofold steps.)

Data set [4] has as its system Escherichia coli ATCC 25922. The data set can be described thus: Antibacterial MIC, INT microdilution. Type of data set: cell-based. The note with it: ATCC25922, read-out: MIC Ec. How it is done: as §3
Data set [5] relates to Bacillus cereus ATCC 14579. The data set can be described thus: Antibacterial MIC, INT microdilution. As to conditions: ATCC14579, read-out: MIC Bc. Type of data set: cell-based. The protocol:
as §3

Data set [6] concerns Pseudomonas aeruginosa ATCC 27853. The experiment in a line: Antibacterial MIC, INT microdilution. The note with it: ATCC27853, read-out: MIC Pa. It counts as cell-based. The protocol: as §3
Data set [7] deals with Staphylococcus aureus ATCC 29213. The data set can be described thus: Antibacterial MIC, INT microdilution. Type of data set: cell-based. As to conditions: ATCC29213, read-out: MIC Sa. How it is done:
as §3

Data set [8] deals with Enterococcus faecalis ATCC 29212. The data set can be described thus: Antibacterial MIC, INT microdilution. Type of data set: cell-based. The note with it: ATCC29212, read-out: MIC Ef. How it is done: as §3
The nature of data set [9]: Ferric reducing antioxidant power (FRAP) assay. As to conditions: mean ± SD of three experiments. How it is done: The antioxidant activity by the ferric reducing antioxidant power (FRAP) was assessed according to the method previously described with slight modifications.
The next data set has as its system Vero monkey kidney cells. The data set can be described thus: MTT cytotoxicity assay, normal cells. As to conditions: normal Vero cells, MTT, mean ± SD. It counts as cell-based. The protocol: as §1, §2

≈ marks a conversion by molar mass, not a printed value. Read-outs that look alike come from different tables or passages of the source. Marks after values point to notes of the source that are not given here.

In the case of `Cc1c(C)c2c(c(C)c1O)CCC(C)(C(=O)O)O2` (centres unmarked) [Trolox, reference compound], in [1], the “DPPH (IC50)” value is 8.71 ± 2.03^e µg/mL. Further, the “ABTS (IC50)” value in “ABTS radical assay” is on record as 10.38 ± 2.4^a,f µg/mL.

`O=C1O[C@H]([C@@H](O)CO)C(O)=C1O` [Ascorbic acid, reference compound]: in data set [1], the “DPPH (IC50)” value was 3.44 ± 1.9^a,f µg/mL. In addition, in the data set “ABTS radical assay”, the “ABTS (IC50)” value is reported as 4.15 ± 1.21^d,e µg/mL.

The term MIC denotes the lowest concentration that inhibits growth of the organism. Turning to `C[C@H]1[C@H](C)CC[C@]2(C(=O)O)CC[C@]3(C)C(=CC[C@@H]4[C@@]5(C)CC[C@H](O)C(C)(C)[C@@H]5CC[C@]43C)[C@H]12` [Compound 1, ursolic acid], the MIC with S. aureus is 4 µg/mL (≈ 8.76 µM); in [3] (Salmonella typhimurium), 100 µg/mL (≈ 219 µM); in [4] it was > 100 µg/mL; in [5] it was 6.25 µg/mL (≈ 13.7 µM); in data set [6], > 100 µg/mL; in data set [7], 12.5 µg/mL (≈ 27.4 µM). Moreover, the MIC in data set [8] was > 100 µg/mL. For the same compound, the CC50 in data set [2] worked out at 22.4 ± 2.48 µg/mL (≈ 49.1 µM); in the data set with THP-1 cells, 9.62 ± 0.59 µg/mL (≈ 21.1 µM); in the data set with RAW 264.7 cells it was 4.56 ± 0.02 µg/mL (≈ 9.98 µM).

For `C[C@@H]1CC[C@@]2(C)C(C(=O)O)=CCC[C@@H]2[C@@]1(C)CC(=O)O` [Compound 5, 13,14,15,16-tetranor-3-clerodene-12,18-dioic acid], the FRAP in data set [9] is on record as 5.09 ± 0.40^c µmol FeSO4/g. The “DPPH (IC50)” value in data set [1] was “– (– 100 µg/mL)”. Besides, the CC50 in [2] amounted to 41.9 ± 1.85 µg/mL (≈ 149 µM); in the data set on THP-1 cells, 21.8 ± 1.11 µg/mL (≈ 77.8 µM); with RAW 264.7 cells, 16.1 ± 1 µg/mL (≈ 57.4 µM). For the same compound, the “ABTS (IC50)” value in “ABTS radical assay” was “– (– 100 µg/mL)”. Further, the MIC in data set [3] (Salmonella typhimurium), in data set [4], in [5], in [6], in data set [7] and in data set [8] was > 100 µg/mL each time.

`COc1cccc2c1C(=O)c1c(O)c3c(c(O)c1C2=O)C[C@@](O)(C(=O)CO)C[C@@H]3O[C@H]1C[C@H](N)[C@H](O)[C@H](C)O1` [Doxorubicin, reference compound]: in the data set with Vero monkey kidney cells, the “Vero LC50” value is on record as 9.35 ± 0.66^h µg/mL. For the same compound, the CC50 with THP-1 cells was > 100 µg/mL; with RAW 264.7 cells, 0.5 µg/mL (≈ 0.92 µM).

In the case of `COC(=O)/C=C(/C)CC[C@]1(C)[C@H]2CCC=C(C(=O)O)[C@]2(C)CC[C@@H]1C` [Compound 4, (8S)-kolavic acid 15-methyl ester], the FRAP in data set [9] is 1.93 ± 0.14^a µmol FeSO4/g. The “DPPH (IC50)” value in data set [1] is recorded as “– (– 100 µg/mL)”. Also, the CC50 was determined as 47.5 ± 0.63 µg/mL (≈ 136 µM) in data set [2], 49.8 ± 3.03 µg/mL (≈ 143 µM) in the data set with THP-1 cells and 52.3 ± 1.3 µg/mL (≈ 150 µM) with RAW 264.7 cells. Also, in the data set “ABTS radical assay”, the “ABTS (IC50)” value was “– (– 100 µg/mL)”. For the same compound, the MIC in data set [3] (Salmonella typhimurium) was 100 µg/mL (≈ 287 µM); in data set [4], > 100 µg/mL; in data set [5] it was 25 µg/mL (≈ 71.7 µM); in data set [6] it was > 100 µg/mL; in [7], 25 µg/mL (≈ 71.7 µM); in data set [8], > 100 µg/mL.

With `C[C@@H]1O[C@@H](Oc2c(-c3ccc(O)c(O)c3)oc3cc(O)cc(O)c3c2=O)[C@H](O)[C@H](O)[C@H]1O` [Compound 2, quercetin-3-O-α-L-rhamnoside], the FRAP in data set [9] is 76.01 ± 1.10^b µmol FeSO4/g. Further, the “DPPH (IC50)” value in data set [1] is 0.9 ± 0.06^b µg/mL. In addition, the CC50 in data set [2] (normal Vero cells, MTT, mean ± SD, read-out: Vero LC50) was 44.8 ± 2.83 µg/mL (≈ 100 µM); in the data set with THP-1 cells, > 100 µg/mL; with RAW 264.7 cells, 16.4 ± 0.2 µg/mL (≈ 36.7 µM). Further, the “ABTS (IC50)” value in “ABTS radical assay” is 3.53 ± 0.39^b µg/mL. Moreover, the MIC turned out to be 3.12 µg/mL (≈ 6.96 µM) in data set [3]; 50 µg/mL (≈ 112 µM) in [4]; 12.5 µg/mL (≈ 27.9 µM) in [5]; 50 µg/mL (≈ 112 µM) in [6]; 12.5 µg/mL (≈ 27.9 µM) in data set [7]; 25 µg/mL (≈ 55.8 µM) in data set [8].

For `CNC(C)C1CCC(N)C(OC2C(N)CC(N)C(OC3OCC(C)(O)C(NC)C3O)C2O)O1` (centres unmarked) [Gentamicin, reference compound], the MIC in [3] (Salmonella typhimurium) was 2 µg/mL (≈ 4.19 µM); in data set [4] it was 1 µg/mL (≈ 2.09 µM); in data set [5] it was 0.5 µg/mL (≈ 1.05 µM); in data set [6], 0.25 µg/mL (≈ 0.523 µM); in [7], 0.5 µg/mL (≈ 1.05 µM); in [8], 0.25 µg/mL (≈ 0.523 µM).

As to `O=C(CCCCCCCCCCCCCCCCCCCCCCCCC(=O)OC[C@@H](O)CO)OC[C@@H](O)CO` [Compound 8, bis-[(S)-(2,3-dihydroxypropyl)] hexacosanedioate], the FRAP in data set [9] is recorded as 22.98 ± 4.29^f µmol FeSO4/g. In addition, the “DPPH (IC50)” value in [1] is reported as “– (– 100 µg/mL)”. Besides, the CC50 in data set [2] amounted to 80.5 ± 4.83 µg/mL (≈ 140 µM); in the data set on THP-1 cells, 65 ± 6.88 µg/mL (≈ 113 µM); with RAW 264.7 cells it was 86.5 ± 4.61 µg/mL (≈ 151 µM). Further, the “ABTS (IC50)” value in “ABTS radical assay” is on record as “– (– 100 µg/mL)”. Besides, the MIC in data set [3] (Salmonella typhimurium), in data set [4], in data set [5], in data set [6], in data set [7] and in data set [8] was > 100 µg/mL each time.

In the case of `COc1ccc(C[C@H](N)C(=O)N[C@H]2[C@@H](O)[C@H](n3cnc4c(N(C)C)ncnc43)O[C@@H]2CO)cc1` [Puromycin, reference compound], the “Vero LC50” value with Vero monkey kidney cells is recorded as 5.32 ± 0.90^i µg/mL. The values for the CC50 with THP-1 cells and in the data set on RAW 264.7 cells were 0.4 ± 0.02 µg/mL (≈ 0.848 µM) and 1.15 ± 0.17 µg/mL (≈ 2.44 µM), respectively.

On to `COC(=O)c1cc(O)c(O)c(O)c1` [Compound 6, methyl gallate], for which, in data set [9], the FRAP is 103.98 ± 13.70^d µmol FeSO4/g. Moreover, the “DPPH (IC50)” value in [1] is recorded as 0.48 ± 0.02^c µg/mL. Besides, the CC50 stood at 30.6 ± 3.09 µg/mL (≈ 166 µM) in [2], 75 ± 1.68 µg/mL (≈ 407 µM) with THP-1 cells and 36.9 ± 1.27 µg/mL (≈ 200 µM) with RAW 264.7 cells. For the same compound, the “ABTS (IC50)” value in “ABTS radical assay” is listed as 2.53 ± 0.49^d µg/mL. Besides, the MIC is 25 µg/mL (≈ 136 µM) in data set [3] (Salmonella typhimurium); > 100 µg/mL in data set [4]; 50 µg/mL (≈ 272 µM) in data set [5]; > 100 µg/mL in data set [6]; 50 µg/mL (≈ 272 µM) in [7]; > 100 µg/mL in [8].

In the case of `COc1c(O)c(O)cc2c1COc1c-2oc2cc(O)cc(O)c2c1=O` [Compound 7, entadanin], the FRAP in [9] was 72.41 ± 2.02^b,e µmol FeSO4/g. Also, in [1], the “DPPH (IC50)” value is 1.12 ± 0.10^c,d µg/mL. The CC50 in data set [2] stood at 55.65 ± 0.3 µg/mL (≈ 162 µM); in the data set with THP-1 cells, 84.3 ± 3.3 µg/mL (≈ 245 µM); in the data set with RAW 264.7 cells, 19.1 ± 0.25 µg/mL (≈ 55.5 µM). In the data set “ABTS radical assay”, the “ABTS (IC50)” value is listed as 4.13 ± 0.10^e µg/mL. In addition, the MIC is 1.56 µg/mL (≈ 4.53 µM) in data set [3] (Salmonella typhimurium); 12.5 µg/mL (≈ 36.3 µM) in data set [4]; 25 µg/mL (≈ 72.6 µM) in data set [5]; 25 µg/mL (≈ 72.6 µM) in [6]; 12.5 µg/mL (≈ 36.3 µM) in data set [7]; > 100 µg/mL in data set [8].

The values are drawn from publication PMC5339975, “Cytotoxicity, antimicrobial and antioxidant activity of eight compounds isolated from Entada abyssinica (Fabaceae)” (BMC Research Notes, 2017).
